Results reported in patent US12252524B2, “GIP/GLP1 co-agonist compounds” (Eli Lilly and Company, priority 2018, dated 2025).
Numbered stars: 1 amine (or outer) side, 2 acyl side, 3 side chain; on linkers, the order of the positions; unused ones are H or OH. Square brackets hold non-standard residues; d marks the D form. Side chains are listed from the residue outwards. Peptide text beside a SMILES is read from it. * marks the point of attachment. C20 diacid = O=C(O)CCCCCCCCCCCCCCCCCCC(=O)*; C18 diacid = O=C(O)CCCCCCCCCCCCCCCCC(=O)*; γGlu = O=C(O)[C@H](CCC(=O)[*:2])N[*:1]; αMeY = C[C@](N)(Cc1ccc(O)cc1)C(=O)O; αMeL = CC(C)C[C@](C)(N)C(=O)O; Orn = NCCC[C@H](N)C(=O)O; AEEA = NCCOCCOCC(=O)O; Aib = CC(C)(N)C(=O)O

Tests used:
[1] = target: T1, human Gcg receptor (Homo sapiens, UniProt P47871); assay: [125I]-Glucagon binding (SPA), human Gcg receptor; conditions: read-out: hGLcgR Ki, nM (SEM, n)
T1 construct: expressed in transfected cells; crude membranes
Method in brief: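 Scintillation counts are taken after membranes and WGA beads incubate and settle for 12 hours at room temperature. Buffer is 25 mM HEPES, pH 7.4, with CaCl2, MgCl2, bacitracin and Tween-20. Ki values, from four-parameter IC50 fits, are geometric means over independent days.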

[2] = target: T2, human GIP receptor (Homo sapiens, UniProt P48546); assay: [125I]-GIP binding (SPA), human GIP receptor; conditions: read-out: hGIPR Ki, nM (SEM, n)
T2 construct: expressed in transfected cells; crude membranes
T2 sequence (P48546 22-466): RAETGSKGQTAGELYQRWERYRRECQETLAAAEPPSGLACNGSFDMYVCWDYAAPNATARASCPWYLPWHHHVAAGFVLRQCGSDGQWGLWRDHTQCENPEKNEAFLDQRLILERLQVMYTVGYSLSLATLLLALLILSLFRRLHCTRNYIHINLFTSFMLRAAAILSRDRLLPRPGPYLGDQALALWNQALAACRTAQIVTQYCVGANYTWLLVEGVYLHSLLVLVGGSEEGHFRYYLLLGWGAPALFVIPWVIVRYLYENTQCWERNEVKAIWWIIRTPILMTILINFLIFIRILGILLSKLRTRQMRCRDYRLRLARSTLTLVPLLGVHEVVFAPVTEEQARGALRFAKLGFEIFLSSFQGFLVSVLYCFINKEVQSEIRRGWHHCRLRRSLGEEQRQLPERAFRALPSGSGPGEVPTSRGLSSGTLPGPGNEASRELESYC

[3] = target: human GLP-1 receptor (GLP-1R) (Homo sapiens, UniProt P43220); assay: cAMP pharmacological functional assay in presence of casein, hGLP-1R; type: cell-based; conditions: HEK293 cells expressing hGLP-1R, 0.1% Casein, geometric mean; read-out: hGLP1R cAMP Rel EC50 nM (SEM, n)
[4] = target: T3, gastric inhibitory peptide receptor (GIPR) (Homo sapiens, UniProt P48546); assay: cAMP pharmacological functional assay in presence of casein, hGIPR; type: cell-based; conditions: HEK293 cells expressing hGIPR, 0.1% Casein, geometric mean; read-out: hGIPR cAMP Rel EC50 nM (SEM, n)
T3 sequence (P48546 22-466): T2 sequence (P48546 22-466)

[5] = target: T4, human GLP-1R (Homo sapiens, UniProt P43220); assay: [125I]-GLP-1 binding (SPA), human GLP-1 receptor; set-up: expressed in transfected cells; crude membranes; conditions: read-out: hGLP1R Ki, (nM) (SEM, n)
Method in brief: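 Frozen cell pellets are lysed on ice in hypotonic Tris buffer, pH 7.5, homogenized, and centrifuged to a membrane pellet resuspended at about 1 to 3 mg/mL. Binding is then measured in HEPES-based buffer at pH 7.4, and curves are fitted to give IC50 and Ki.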

[6] = target: T4, human GLP-1R; assay: GLP-1R CHO cell β-arrestin recruitment assay; type: cell-based; set-up: host or cells: CHO-K1 PathHunter cells, assay-ready frozen; conditions: for EC50: CHO-K1 cells; for hGLP1R B-Arrestin2 % Top: normalized to GLP-1 maximum control
Method in brief: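 PathHunter CHO-K1 cells with ProLink-tagged human GLP-1R and enzyme-acceptor-tagged β-arrestin-2 treated with serially diluted peptides in assay buffer containing 0.1% hydrolyzed casein, 90 min at 37 °C.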

[7] = target: T4, human GLP-1R; assay: GLP-1R HEK293 cell membrane [35S]GTPγS binding assay; type: biochemical; set-up: expressed in transfected cells; host or cells: HEK293 cells expressing human GLP-1R; membranes; conditions: HEK293 cell membranes expressing human GLP-1R, [35S]GTPγS binding; read-out: hGLP1R GTPgS Rel EC50 nM (SEM, n)
Method in brief: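 Membranes from HEK293 cells expressing the receptor incubated with peptide and […] [35S]GTPγS in HEPES pH 7.4 buffer with NaCl, MgCl2, saponin and BSA, 30 min at room temperature. Gαs-bound label captured by anti-Gαs antibody/SPA beads and counted; EC50 from four-parameter logistic fit.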

[8] = PathHunter β-arrestin-2 recruitment, 0.1% casein, read-out: hGLP1R B-Arrestin2 Rel EC50 uM (SEM, n)
[9] = 0.1% w/v hydrolyzed Casein, read-out: hGLP1R B-Arrestin2 Rel EC50

T1 sequence (P47871 26-477): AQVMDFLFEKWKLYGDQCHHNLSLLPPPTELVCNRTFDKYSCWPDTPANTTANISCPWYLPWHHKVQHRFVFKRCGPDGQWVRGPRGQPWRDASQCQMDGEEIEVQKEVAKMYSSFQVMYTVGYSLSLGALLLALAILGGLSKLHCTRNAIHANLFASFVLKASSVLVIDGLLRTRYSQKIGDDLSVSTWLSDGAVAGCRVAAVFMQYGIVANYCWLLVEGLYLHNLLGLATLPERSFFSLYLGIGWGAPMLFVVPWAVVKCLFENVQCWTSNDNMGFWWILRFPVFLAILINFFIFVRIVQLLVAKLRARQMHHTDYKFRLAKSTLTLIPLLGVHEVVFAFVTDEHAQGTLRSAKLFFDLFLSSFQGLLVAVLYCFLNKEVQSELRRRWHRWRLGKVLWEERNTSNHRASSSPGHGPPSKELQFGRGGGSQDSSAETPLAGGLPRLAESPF
T4 sequence (P43220 24-463): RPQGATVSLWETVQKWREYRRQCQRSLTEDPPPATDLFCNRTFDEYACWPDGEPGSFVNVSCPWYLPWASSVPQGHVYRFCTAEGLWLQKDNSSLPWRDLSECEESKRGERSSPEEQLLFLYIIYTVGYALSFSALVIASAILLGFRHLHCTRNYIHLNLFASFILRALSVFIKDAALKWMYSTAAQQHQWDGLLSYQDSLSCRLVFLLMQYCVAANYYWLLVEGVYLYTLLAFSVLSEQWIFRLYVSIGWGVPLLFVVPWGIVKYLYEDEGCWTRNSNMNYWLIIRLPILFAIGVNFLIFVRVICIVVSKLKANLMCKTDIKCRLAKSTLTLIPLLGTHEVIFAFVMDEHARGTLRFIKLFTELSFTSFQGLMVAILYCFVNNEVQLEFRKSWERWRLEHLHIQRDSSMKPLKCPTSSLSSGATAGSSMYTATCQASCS
Sequence of human GLP-1 receptor (GLP-1R) (P43220 24-463): as above

| Structure (SMILES) | Ki [1] [nM] | Ki [2] [nM] | EC50 [3] [nM] | EC50 [4] [nM] | Ki [5] [nM] | EC50 [6, 8] [µM] | hGLP1R B-Arrestin2 % Top [6] [%] | EC50 [7] [nM] | EC50 [6, 9] [µM] |
| --- | --- | --- | --- | --- | --- | --- | --- | --- | --- |
| CC[C@H](C)[C@H](NC(=O)[C@H](CC(C)C)NC(=O)[C@H](Cc1ccc(O)cc1)NC(=O)[C@H](CCC(=O)O)NC(=O)[C@@H](NC(=O)[C@H](Cc1ccccc1)NC(=O)[C@H](C)NC(=O)C(C)(C)NC(=O)[C@H](CCC(N)=O)NC(=O)[C@H](C)NC(=O)[C@H](CCCCNC(=O)COCCOCCNC(=O)COCCOCCNC(=O)CC[C@H](NC(=O)CCCCCCCCCCCCCCCCC(=O)O)C(=O)O)NC(=O)[C@H](CCCCN)NC(=O)[C@H](CC(=O)O)NC(=O)[C@H](CC(C)C)NC(=O)[C@H](CC(C)C)NC(=O)[C@@H](NC(=O)[C@H](CO)NC(=O)[C@H](Cc1ccc(O)cc1)NC(=O)[C@H](CC(=O)O)NC(=O)[C@H](CO)NC(=O)[C@@H](NC(=O)[C@H](Cc1ccccc1)NC(=O)[C@@H](NC(=O)CNC(=O)[C@H](CCC(=O)O)NC(=O)C(C)(C)NC(=O)[C@@H](N)Cc1ccc(O)cc1)[C@@H](C)O)[C@@H](C)O)[C@@H](C)CC)[C@@H](C)CC)C(=O)N[C@@H](CCC(=O)O)C(=O)NCC(=O)NCC(N)=O [Example 267] (H-Y[Aib]EGTFTSDYSILLDKK([AEEA-AEEA-γGlu-C18 diacid])AQ[Aib]AFIEYLIEGG-NH2) | 349 | 0.0628 | 0.054 | 0.108 | 1.57 | 0.00901 | 16.5 | 0.867 |  |
| CC[C@H](C)[C@H](NC(=O)[C@H](CC(C)C)NC(=O)[C@H](Cc1ccc(O)cc1)NC(=O)[C@H](CCC(=O)O)NC(=O)[C@@H](NC(=O)[C@H](Cc1ccccc1)NC(=O)[C@H](C)NC(=O)C(C)(C)NC(=O)[C@H](CCC(N)=O)NC(=O)[C@H](C)NC(=O)[C@H](CCCCNC(=O)COCCOCCNC(=O)COCCOCCNC(=O)CC[C@H](NC(=O)CCCCCCCCCCCCCCCCC(=O)O)C(=O)O)NC(=O)[C@H](CCCCN)NC(=O)[C@H](CC(=O)O)NC(=O)[C@H](CC(C)C)NC(=O)[C@H](CC(C)C)NC(=O)[C@@H](NC(=O)[C@H](CO)NC(=O)[C@H](Cc1ccc(O)cc1)NC(=O)[C@H](CC(=O)O)NC(=O)[C@H](CO)NC(=O)[C@@H](NC(=O)[C@H](Cc1ccccc1)NC(=O)[C@@H](NC(=O)CNC(=O)[C@H](CCC(=O)O)NC(=O)C(C)(C)NC(=O)[C@@H](N)Cc1ccc(O)cc1)[C@@H](C)O)[C@@H](C)O)[C@@H](C)CC)[C@@H](C)CC)C(=O)N[C@@H](C)C(=O)NCC(=O)NCC(=O)N1CCC[C@H]1C(=O)N[C@@H](CO)C(=O)N[C@@H](CO)C(=O)NCC(N)=O [Example 272] (H-Y[Aib]EGTFTSDYSILLDKK([AEEA-AEEA-γGlu-C18 diacid])AQ[Aib]AFIEYLIAGGPSSG-NH2) | 550 | 0.0353 | 0.0435 | 0.0464 | 1.22 | > 12 |  | 0.651 | > 12 |
| CC[C@H](C)[C@H](NC(=O)[C@H](CC(C)C)NC(=O)[C@H](Cc1ccc(O)cc1)NC(=O)[C@H](CCC(=O)O)NC(=O)[C@@H](NC(=O)[C@H](Cc1ccccc1)NC(=O)[C@H](CCC(=O)O)NC(=O)C(C)(C)NC(=O)[C@H](CCC(N)=O)NC(=O)[C@H](C)NC(=O)[C@H](CCCCNC(=O)COCCOCCNC(=O)COCCOCCNC(=O)CC[C@H](NC(=O)CCCCCCCCCCCCCCCCCCC(=O)O)C(=O)O)NC(=O)[C@H](CCCCN)NC(=O)[C@H](CC(=O)O)NC(=O)[C@H](CC(C)C)NC(=O)[C@](C)(CC(C)C)NC(=O)[C@@H](NC(=O)[C@H](CO)NC(=O)[C@H](Cc1ccc(O)cc1)NC(=O)[C@H](CC(=O)O)NC(=O)[C@H](CO)NC(=O)[C@@H](NC(=O)[C@H](Cc1ccccc1)NC(=O)[C@@H](NC(=O)CNC(=O)[C@H](CCC(=O)O)NC(=O)C(C)(C)NC(=O)[C@H](N)Cc1ccc(O)cc1)[C@@H](C)O)[C@@H](C)O)[C@@H](C)CC)[C@@H](C)CC)C(=O)N[C@@H](C)C(=O)NCC(=O)NCC(=O)N1CCC[C@H]1C(=O)N[C@@H](CO)C(=O)N[C@@H](CO)C(=O)NCC(=O)N[C@@H](C)C(=O)N1CCC[C@H]1C(=O)N1CCC[C@H]1C(=O)N1CCC[C@H]1C(=O)N[C@@H](CO)C(N)=O [Example 290] (H-[dY][Aib]EGTFTSDYSI[αMeL]LDKK([AEEA-AEEA-γGlu-C20 diacid])AQ[Aib]EFIEYLIAGGPSSGAPPPS-NH2) | 308 | 0.0617 | 0.179 | 0.0629 | 2.44 | 0.0238 | 20.0 | 0.466 |  |
| CC[C@H](C)[C@H](NC(=O)[C@H](CC(C)C)NC(=O)[C@H](Cc1ccc(O)cc1)NC(=O)[C@@H](CCC(=O)O)NC(=O)[C@@H](NC(=O)[C@H](Cc1ccccc1)NC(=O)[C@H](C)NC(=O)C(C)(C)NC(=O)[C@H](CCC(N)=O)NC(=O)[C@H](C)NC(=O)[C@H](CCCCNC(=O)COCCOCCNC(=O)COCCOCCNC(=O)CC[C@H](NC(=O)CCCCCCCCCCCCCCCCCCC(=O)O)C(=O)O)NC(=O)[C@H](CCCN)NC(=O)[C@H](CC(=O)O)NC(=O)[C@H](CC(C)C)NC(=O)[C@](C)(CC(C)C)NC(=O)[C@@H](NC(=O)[C@H](CO)NC(=O)[C@H](Cc1ccc(O)cc1)NC(=O)[C@H](CC(=O)O)NC(=O)[C@H](CO)NC(=O)[C@@H](NC(=O)[C@H](Cc1ccccc1)NC(=O)[C@@H](NC(=O)CNC(=O)[C@H](CCC(=O)O)NC(=O)C(C)(C)NC(=O)[C@H](N)Cc1ccc(O)cc1)[C@@H](C)O)[C@@H](C)O)[C@@H](C)CC)[C@@H](C)CC)C(=O)N[C@@H](C)C(=O)NCC(=O)NCC(=O)N1CCC[C@H]1C(=O)N[C@@H](CO)C(=O)N[C@@H](CO)C(=O)NCC(=O)N[C@@H](C)C(=O)N1CCC[C@H]1C(=O)N1CCC[C@H]1C(=O)N1CCC[C@H]1C(=O)N[C@@H](CO)C(N)=O [Example 291] (H-[dY][Aib]EGTFTSDYSI[αMeL]LD[Orn]K([AEEA-AEEA-γGlu-C20 diacid])AQ[Aib]AFI[dE]YLIAGGPSSGAPPPS-NH2) | > 872 | 0.129 | 0.15 | 0.118 | 3.16 | > 10 |  | 0.466 | > 10 |
| CC[C@H](C)[C@H](NC(=O)[C@H](CC(C)C)NC(=O)[C@](C)(Cc1ccc(O)cc1)NC(=O)[C@H](CCC(=O)O)NC(=O)[C@@H](NC(=O)[C@H](Cc1ccccc1)NC(=O)[C@H](CCC(=O)O)NC(=O)C(C)(C)NC(=O)[C@H](CCC(N)=O)NC(=O)[C@H](C)NC(=O)[C@H](CCCCNC(=O)COCCOCCNC(=O)COCCOCCNC(=O)CC[C@H](NC(=O)CCCCCCCCCCCCCCCCCCC(=O)O)C(=O)O)NC(=O)[C@H](CCCCN)NC(=O)[C@H](CC(=O)O)NC(=O)[C@H](CC(C)C)NC(=O)[C@](C)(CC(C)C)NC(=O)[C@@H](NC(=O)[C@H](CO)NC(=O)[C@H](Cc1ccc(O)cc1)NC(=O)[C@H](CC(=O)O)NC(=O)[C@H](CO)NC(=O)[C@@H](NC(=O)[C@H](Cc1ccccc1)NC(=O)[C@@H](NC(=O)CNC(=O)[C@H](CCC(=O)O)NC(=O)C(C)(C)NC(=O)[C@H](N)Cc1ccc(O)cc1)[C@@H](C)O)[C@@H](C)O)[C@@H](C)CC)[C@@H](C)CC)C(=O)N[C@@H](C)C(=O)NCC(=O)NCC(=O)N1CCC[C@H]1C(=O)N[C@@H](CO)C(=O)N[C@@H](CO)C(=O)NCC(=O)N[C@@H](C)C(=O)N1CCC[C@H]1C(=O)N1CCC[C@H]1C(=O)N1CCC[C@H]1C(=O)N[C@@H](CO)C(N)=O [Example 292] (H-[dY][Aib]EGTFTSDYSI[αMeL]LDKK([AEEA-AEEA-γGlu-C20 diacid])AQ[Aib]EFIE[αMeY]LIAGGPSSGAPPPS-NH2; N-terminus assumed) | 595 | 0.0547 | 0.183 | 0.0682 | 1.19 | 0.00774 | 29.0 | 0.429 |  |
